Measurements taken from the supplement of paper PMC10307832.

Experiments:
Test in all cases: relative viability (nuclei count vs DMSO), 5 days (fraction); higher = more cells survive
201T = test system: 201T
Summary of the method: (§1)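 Dosing by pin tool came one day after lung cancer cell lines were seeded in 1536-well plates, using either one drug or a fixed anchor-drug dose plus five library-drug doses (not always all listed) in √10 steps. After 5 days, nuclei were counted on 4× images. Relative viability is treated-well nuclei count divided by vehicle-well nuclei count, and values are medians of duplicate plates.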

HCC-15 = test system: HCC-15
Summary of the method: as §1

COR-L 105 = test system: COR-L 105
Summary of the method: as §1

LC-2-ad = test system: LC-2-ad
Summary of the method: as §1

LU99A = test system: LU99A
Summary of the method: as §1

NCI-H596 = test system: NCI-H596
Summary of the method: as §1

COR-L23 = test system: COR-L23
Summary of the method: as §1

HCC-366 = test system: HCC-366
Summary of the method: as §1

NCI-H3122 = test system: NCI-H3122
Summary of the method: as §1

HCC-78 = test system: HCC-78
Summary of the method: as §1

NCI-H1993 = test system: NCI-H1993
Summary of the method: as §1

EKVX = test system: EKVX
Summary of the method: as §1

NCI-H1944 = test system: NCI-H1944
Summary of the method: as §1

HCC-827 = test system: HCC-827
Summary of the method: as §1

NCI-H1650 = test system: NCI-H1650
Summary of the method: as §1

HARA = test system: HARA
Summary of the method: as §1

SK-LU-1 = test system: SK-LU-1
Summary of the method: as §1

BEN = test system: BEN
Summary of the method: as §1

LXF-289 = test system: LXF-289
Summary of the method: as §1

NCI-H1975 = test system: NCI-H1975
Summary of the method: as §1

NCI-H1734 = test system: NCI-H1734
Summary of the method: as §1

NCI-H1755 = test system: NCI-H1755
Summary of the method: as §1

RERF-LC-KJ = test system: RERF-LC-KJ
Summary of the method: as §1

With O=c1[nH]c2ccccc2n1C1CCN(CCCC(c2ccc(F)cc2)c2ccc(F)cc2)CC1 [Pimozide] + COc1cccc2cc(-c3nc([C@H]4CC[C@H](C(=O)O)CC4)n4ncnc(N)c34)[nH]c12 [OSI-027] (partner 0.5 µM) the relative viability (201T; first compound 0.08 µM) was 0.821, the relative viability (201T; first compound 0.253 µM) was 0.825 and the relative viability (201T; first compound 0.8 µM) was 0.711. It also gave a relative viability (201T; first compound 2.53 µM) of 0.709, a relative viability (201T; first compound 8 µM) of 0.584 and a relative viability (HCC-15; first compound 0.08 µM) of 0.817. The relative viability (HCC-15; first compound 0.253 µM) was 0.668, the relative viability (HCC-15; first compound 0.8 µM) was 0.472 and the relative viability (HCC-15; first compound 2.53 µM) was 0.618. It also gave a relative viability (HCC-15; first compound 8 µM) of 0.573, a relative viability (COR-L 105; first compound 0.253 µM) of 0.778 and a relative viability (COR-L 105; first compound 0.8 µM) of 0.617. The relative viability (COR-L 105; first compound 2.53 µM) was 0.64, the relative viability (COR-L 105; first compound 8 µM) was 0.58 and the relative viability (LC-2-ad; first compound 0.08 µM) was 0.694. It also gave a relative viability (LC-2-ad; first compound 0.253 µM) of 0.875, a relative viability (LC-2-ad; first compound 0.8 µM) of 0.735 and a relative viability (LC-2-ad; first compound 2.53 µM) of 0.681. The relative viability (LC-2-ad; first compound 8 µM) was 0.635, the relative viability (LU99A; first compound 0.08 µM) was 0.277 and the relative viability (LU99A; first compound 0.253 µM) was 0.277. It also gave a relative viability (LU99A; first compound 0.8 µM) of 0.228, a relative viability (LU99A; first compound 2.53 µM) of 0.302 and a relative viability (LU99A; first compound 8 µM) of 0.291. The relative viability (NCI-H596; first compound 0.08 µM) was 0.627, the relative viability (NCI-H596; first compound 0.253 µM) was 0.851 and the relative viability (NCI-H596; first compound 0.8 µM) was 0.642. For the same compound, the relative viability (NCI-H596; first compound 2.53 µM) was 0.627, the relative viability (NCI-H596; first compound 8 µM) was 0.481 and the relative viability (COR-L23; first compound 0.08 µM) was 0.757. For the same compound, the relative viability (COR-L23; first compound 0.253 µM) was 0.75, the relative viability (COR-L23; first compound 0.8 µM) was 0.694 and the relative viability (COR-L23; first compound 2.53 µM) was 0.731. For the same compound, the relative viability (COR-L23; first compound 8 µM) was 0.639, the relative viability (HCC-366; first compound 0.08 µM) was 0.825 and the relative viability (HCC-366; first compound 0.253 µM) was 0.795. The relative viability (HCC-366; first compound 0.8 µM) was 0.477, the relative viability (HCC-366; first compound 2.53 µM) was 0.614 and the relative viability (HCC-366; first compound 8 µM) was 0.206. It also gave a relative viability (NCI-H3122; first compound 0.08 µM) of 1.01, a relative viability (NCI-H3122; first compound 0.253 µM) of 0.873 and a relative viability (NCI-H3122; first compound 0.8 µM) of 0.826. It also gave a relative viability (NCI-H3122; first compound 2.53 µM) of 0.926, a relative viability (NCI-H3122; first compound 8 µM) of 0.822 and a relative viability (HCC-78; first compound 0.08 µM) of 0.439. It also gave a relative viability (HCC-78; first compound 0.8 µM) of 0.345, a relative viability (HCC-78; first compound 2.53 µM) of 0.36 and a relative viability (HCC-78; first compound 8 µM) of 0.354. The relative viability (NCI-H1993; first compound 0.08 µM) was 0.562, the relative viability (NCI-H1993; first compound 0.253 µM) was 0.572 and the relative viability (NCI-H1993; first compound 0.8 µM) was 0.539. It also gave a relative viability (NCI-H1993; first compound 2.53 µM) of 0.581, a relative viability (NCI-H1993; first compound 8 µM) of 0.479 and a relative viability (EKVX; first compound 0.08 µM) of 0.548. The relative viability (EKVX; first compound 0.253 µM) was 0.733, the relative viability (EKVX; first compound 0.8 µM) was 0.668 and the relative viability (EKVX; first compound 2.53 µM) was 0.637. The relative viability (EKVX; first compound 8 µM) was 0.647, the relative viability (NCI-H1944; first compound 0.08 µM) was 0.347 and the relative viability (NCI-H1944; first compound 0.253 µM) was 0.417. It also gave a relative viability (NCI-H1944; first compound 0.8 µM) of 0.33, a relative viability (NCI-H1944; first compound 2.53 µM) of 0.389 and a relative viability (NCI-H1944; first compound 8 µM) of 0.37. It also gave a relative viability (HCC-827; first compound 0.253 µM) of 0.801, a relative viability (HCC-827; first compound 0.8 µM) of 0.738 and a relative viability (HCC-827; first compound 2.53 µM) of 0.782. For the same compound, the relative viability (HCC-827; first compound 8 µM) was 0.769, the relative viability (NCI-H1650; first compound 0.08 µM) was 0.459 and the relative viability (NCI-H1650; first compound 0.253 µM) was 0.668. The relative viability (NCI-H1650; first compound 0.8 µM) was 0.491, the relative viability (NCI-H1650; first compound 2.53 µM) was 0.643 and the relative viability (NCI-H1650; first compound 8 µM) was 0.437. The relative viability (HARA; first compound 0.253 µM) was 0.518, the relative viability (HARA; first compound 0.8 µM) was 0.196 and the relative viability (HARA; first compound 2.53 µM) was 0.384. The relative viability (HARA; first compound 8 µM) was 0.264, the relative viability (SK-LU-1; first compound 0.08 µM) was 0.417 and the relative viability (SK-LU-1; first compound 0.253 µM) was 0.331. The relative viability (SK-LU-1; first compound 0.8 µM) was 0.285, the relative viability (SK-LU-1; first compound 2.53 µM) was 0.231 and the relative viability (SK-LU-1; first compound 8 µM) was 0.201. It also gave a relative viability (BEN; first compound 0.08 µM) of 0.275, a relative viability (BEN; first compound 0.253 µM) of 0.293 and a relative viability (BEN; first compound 0.8 µM) of 0.307. It also gave a relative viability (BEN; first compound 2.53 µM) of 0.321, a relative viability (BEN; first compound 8 µM) of 0.304 and a relative viability (LXF-289; first compound 0.08 µM) of 0.693. For the same compound, the relative viability (LXF-289; first compound 0.253 µM) was 0.786, the relative viability (LXF-289; first compound 0.8 µM) was 0.773 and the relative viability (LXF-289; first compound 2.53 µM) was 0.811. The relative viability (LXF-289; first compound 8 µM) was 0.716, the relative viability (NCI-H1975; first compound 0.08 µM) was 0.838 and the relative viability (NCI-H1975; first compound 0.253 µM) was 0.695. The relative viability (NCI-H1975; first compound 0.8 µM) was 0.753, the relative viability (NCI-H1975; first compound 2.53 µM) was 0.651 and the relative viability (NCI-H1975; first compound 8 µM) was 0.561. The relative viability (NCI-H1734; first compound 0.08 µM) was 0.604, the relative viability (NCI-H1734; first compound 0.253 µM) was 0.625 and the relative viability (NCI-H1734; first compound 2.53 µM) was 0.581. It also gave a relative viability (NCI-H1734; first compound 8 µM) of 0.549, a relative viability (NCI-H1755; first compound 0.08 µM) of 0.678 and a relative viability (NCI-H1755; first compound 0.253 µM) of 0.687. It also gave a relative viability (NCI-H1755; first compound 0.8 µM) of 0.678, a relative viability (NCI-H1755; first compound 2.53 µM) of 0.597 and a relative viability (NCI-H1755; first compound 8 µM) of 0.51. For the same compound, the relative viability (RERF-LC-KJ; first compound 0.08 µM) was 0.509, the relative viability (RERF-LC-KJ; first compound 0.253 µM) was 0.513 and the relative viability (RERF-LC-KJ; first compound 0.8 µM) was 0.52. The relative viability (RERF-LC-KJ; first compound 2.53 µM) was 0.427 and the relative viability (RERF-LC-KJ; first compound 8 µM) was 0.448.
